The test system of experiment [1] is prolactin. Description: Hypoprolactinemic effect in rats, serum prolactin by RIA, sulpiride-treated (hyperprolactinemic) animals. The following applies: for inhibition in vivo at 0.5 mg/kg / inhibition in vivo at 5 mg/kg: Rattus norvegicus; for inhibition in vivo at 0.5 mg/kg: read-out: Prolactin Inhibition %, sulpiride 10 γ/kg + 0.5 mg/kg test substance; for inhibition in vivo at 5 mg/kg: read-out: Prolactin Inhibition %, sulpiride 10 γ/kg + 5.0 mg/kg test substance.

The test system of experiment [2] is prolactin. Nature of the experiment: Hypoprolactinemic effect in rats, serum prolactin by RIA, at the circadian peak at 4 p.m. The following applies: for inhibition in vivo at 0.5 mg/kg / inhibition in vivo at 5 mg/kg: Rattus norvegicus; for in vivo (hypoprolactinemic) activity, in words: rats, summary statement.
For experiment [3], the target named is T1, dopamine receptors (Rattus norvegicus, UniProt P61169).
T1 construct: on hypophysis sinaptosomal rat membranes; from tissue; host or cells: rat hypophysis (pituitary), synaptosomal membranes
T1 sequence (P61169 whole entry): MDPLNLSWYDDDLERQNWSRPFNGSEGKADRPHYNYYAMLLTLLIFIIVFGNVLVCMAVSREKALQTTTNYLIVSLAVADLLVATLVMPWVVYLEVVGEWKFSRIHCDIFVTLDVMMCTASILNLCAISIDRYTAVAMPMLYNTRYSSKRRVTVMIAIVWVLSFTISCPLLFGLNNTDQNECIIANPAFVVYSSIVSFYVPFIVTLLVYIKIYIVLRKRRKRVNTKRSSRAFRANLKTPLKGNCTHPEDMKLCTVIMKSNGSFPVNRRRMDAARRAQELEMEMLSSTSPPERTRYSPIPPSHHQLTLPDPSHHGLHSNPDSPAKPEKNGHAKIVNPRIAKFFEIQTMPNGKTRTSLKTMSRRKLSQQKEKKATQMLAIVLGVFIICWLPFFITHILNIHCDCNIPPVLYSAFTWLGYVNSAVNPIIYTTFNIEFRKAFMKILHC
Description: Binding of (^3H)-spiroperidole to hypophysis membranes of rat. Particulars: for binding power / in vitro activity, in words: compared to the parent acid or lipid alone; for activity at 1 µM: test substance 10^-6 M; for activity at 0.1 µM: test substance 10^-7 M. On the procedure:
The in vitro biological activity was determined by comparative tests measuring the binding power of the labelled spiroperidole (^3 H)-spiroperidole on hypophysis sinaptosomal rat membranes according to the method described by Greese et al (GREESE I., SCHNEIDER R. and SNYDER S. H.; H-spiroperidole labels dopamine receptors in pituitary and brain; Europ. J. Pharmacol. 46, 377-381 (1977)).

Experiment [4] in a line: General pharmacological activity in vitro and in vivo. The following applies: tested in vitro and in vivo in laboratory animals.
For experiment [5], the system named is synaptic membranes of the rat cortex. Description: Binding of ^3H-GABA on synaptic membranes of the rat cortex (method of Enna and Snyder). Particulars: for Product bound % (^3H-GABA binding on rat cortex membranes): ^3H-GABA 2.10^-8 M. An excerpt: Table I presents the results of these tests, expressed in percentage of the fixed active product, comparing the in vitro activity of Product 1 with the activities of the individual components which comprise Product 1.

Experiment [6] can be described thus: Anticonvulsant effects in rat (isoniazide convulsions). It is filed as in vivo. On the procedure:
The in vivo activity of Product 1 was measured by the method described by Costa et al (E. Costa, A. Guidotti and C. C. Mao; "Evidence for involvement of GABA in the Action of Benzodiazepines: Studies in Rat Cerebellum" in Mechanism of Action of Benzodiazepines; Ed. by E. Costa and P. Greengard, New York, Raven Press. pp. 113-130 (1975)) and by Loescher and Frey (Loesher, W. and Frey, H. H.; "Effect of convulsant and anticonvulsant agents on level and metabolism of gamma-aminobutyric acid in mouse brain"; Naunyn-Schmiedeberg's Arch. Pharmacol. 296, 263-269 (1977)). These tests are based on the known activity of isoniazide to cause convulsions and a lowering of the GABA cerebral levels and the glutamic-decarboxylase enzyme activity.

Where [7] appears, read: sulpiride 10 γ/kg + 0.5 mg/kg test substance.
The mark [8] stands for this setting: sulpiride 10 γ/kg + 5.0 mg/kg test substance.
Setting [9] is: 0.5 mg/kg, circadian peak at 4 p.m.
Setting [10] is: 5.0 mg/kg, circadian peak at 4 p.m.
[11] abbreviates: read-out: Prolactin Inhibition %, 0.5 mg/kg, circadian peak at 4 p.m.
[12] abbreviates: read-out: Prolactin Inhibition %, 5.0 mg/kg, circadian peak at 4 p.m.
The mark [13] stands for this setting: read-out: Product bound % ((^3H) spiroperidole binding to hypophysis membranes), (^3H) spiroperidole 2.10^-9 M (2 nM), test substance 10^-4 M.
Where [14] appears, read: read-out: Product bound % ((^3H) spiroperidole binding to hypophysis membranes), (^3H) spiroperidole 2.10^-9 M (2 nM), test substance 10^-5 M.
Where [15] appears, read: read-out: Product bound % ((^3H) spiroperidole binding to hypophysis membranes), (^3H) spiroperidole 2.10^-9 M (2 nM).
Setting [16] is: read-out: Prolactin Inhibition %.
The mark [17] stands for this setting: (^3H) spiroperidole 2.10^-9 M (2 nM), test substance 10^-4 M, read-out: Product bound % ((^3H) spiroperidole binding to hypophysis membranes).
Where [18] appears, read: (^3H) spiroperidole 2.10^-9 M (2 nM), test substance 10^-5 M, read-out: Product bound % ((^3H) spiroperidole binding to hypophysis membranes).
Where [19] appears, read: (^3H) spiroperidole 2.10^-9 M (2 nM), read-out: Product bound % ((^3H) spiroperidole binding to hypophysis membranes).
Setting [20] is: isoniazide 160 mg/kg (s.c.) + sphingosine 12 mg/kg (i.p.).
[21] abbreviates: isoniazide 160 mg/kg (s.c.) alone.

Molecules are shown by their SMILES. Entries after “also recorded” stand apart in the source; their conditions may differ. Read-outs that look alike come from different tables or passages of the source.

Regarding `CCCCCCCCCCCCCC=CC(O)C(CO)NC(=O)[C@@H]1C=C2c3cccc4[nH]cc(c34)C[C@H]2N(C)C1` (some centres unmarked) [Product 2.2, Lysergylsphingosine-amide], the inhibition in vivo at 0.5 mg/kg in experiment [1] came to 32%; in experiment [2] (setting [11]) it was 27%. For the same molecule, the figures for the inhibition in vivo at 5 mg/kg in experiment [1] and in experiment [2] (setting [12]) were 44% and 39%, respectively. For the same molecule, the Prolactin in experiment [1] (setting [7]) turned out to be 59.0 ± 6.0 ng/mL; in experiment [1] (setting [8]) it was 49.0 ± 5.0 ng/mL; in experiment [2] (setting [9]), 48.0 ± 4.8 ng/mL; in experiment [2] (setting [10]), 40.0 ± 2.6 ng/mL. In experiment [2], the “in vivo (hypoprolactinemic) activity, in words” value (from here on “in vivo … in words”) is “far superior to either lysergic acid or sphingosine alone”. Further, the “binding power / in vitro activity, in words” value in experiment [3] was “far superior to either lysergic acid or sphingosine alone”. Further, in experiment [3] (setting [13]), the activity at 100 µM came out at 35%. Further, in experiment [3] (setting [14]), the activity at 10 µM was determined as 55%. The activity at 1 µM in experiment [3] (setting [15]) stood at 85%. For the same molecule, the activity at 0.1 µM in experiment [3] (setting [15]) was found to be 100%.

On to `CCCCCCCCCCCCCC=CC(O)C(N)COC1OC(CO)C(O)C(O)C1O` (centres unmarked) [psychosine, Psychosine or galactosylsphingosine], for which the Prolactin in experiment [1] (setting [7]) was found to be 70.0 ± 6.0 ng/mL; in experiment [1] (setting [8]), 61.0 ± 7.0 ng/mL; in experiment [2] (setting [9]), 50.0 ± 5.0 ng/mL; in experiment [2] (setting [10]), 41.0 ± 5.0 ng/mL. For the same molecule, the inhibition in vivo at 0.5 mg/kg in experiment [2] (setting [16]) stood at 14%. Moreover, the inhibition in vivo at 5 mg/kg in experiment [2] (setting [16]) came out at 30%. In addition, the activity at 100 µM in experiment [3] (setting [17]) came out at 60%. Besides, in experiment [3] (setting [18]), the activity at 10 µM worked out at 90%. The activity at 1 µM in experiment [3] (setting [19]) was found to be 100%. Moreover, the activity at 0.1 µM in experiment [3] (setting [19]) worked out at 100%.

Consider `CN1C[C@@H](C(=O)O)C=C2c3cccc4[nH]cc(c34)C[C@H]21` [isolysergic acid], for which, in experiment [2], the “in vivo … in words” value is “essentially inactive when administered alone”.

Turning to `CCCCCCCCCCCCCCCC(O)C(N)CO` (centres unmarked) [dihydrosphingosine], the Prolactin in experiment [1] (setting [7]) was determined as 81.0 ± 11.0 ng/mL; in experiment [1] (setting [8]) it was 74.0 ± 6.0 ng/mL; in experiment [2] (setting [9]) it was 66.0 ± 4.2 ng/mL; in experiment [2] (setting [10]), 60.0 ± 2.8 ng/mL. Also, the inhibition in vivo at 0.5 mg/kg in experiment [2] (setting [16]) is 0%. The inhibition in vivo at 5 mg/kg in experiment [2] (setting [16]) was 0%. For the same molecule, the activity at 100 µM in experiment [3] (setting [17]) was 100%. In experiment [3] (setting [18]), the activity at 10 µM came out at 100%. For the same molecule, the activity at 1 µM in experiment [3] (setting [19]) was found to be 100%. The activity at 0.1 µM in experiment [3] (setting [19]) was found to be 100%.

For the molecule `CCCCCCCCCCCCCC=CC(O)C(COC1OC(CO)C(O)C(O)C1O)NC(=O)C1CC2c3cccc4[nH]cc(c34)CC2N(C)C1` (centres unmarked) [Product 16, Dihydrolysergylpsychosine amide], the inhibition in vivo at 0.5 mg/kg in experiment [1] was determined as 37%; in experiment [2] (setting [11]), 31%. The inhibition in vivo at 5 mg/kg was found to be 52% in experiment [1] and 47% in experiment [2] (setting [12]). For the same molecule, the Prolactin in experiment [1] (setting [7]) was found to be 51.0 ± 7.0 ng/mL; in experiment [1] (setting [8]) it was 39.0 ± 4.0 ng/mL; in experiment [2] (setting [9]) it was 40.0 ± 7.0 ng/mL; in experiment [2] (setting [10]) it was 31.0 ± 6.0 ng/mL. The “in vivo … in words” value in experiment [2] is recorded as “far superior to either dihydrolysergic acid or psychosine alone”. The “action in the central nervous system, in words” value in experiment [4] is “capable of acting directly in the central nervous system”. Also, the “binding power / in vitro activity, in words” value in experiment [3] was “far superior to either dihydrolysergic acid or psychosine alone”. The activity at 100 µM in experiment [3] (setting [13]) stood at 25%. Moreover, in experiment [3] (setting [14]), the activity at 10 µM came to 45%. For the same molecule, the activity at 1 µM in experiment [3] (setting [15]) was 80%. Moreover, in experiment [3] (setting [15]), the activity at 0.1 µM came to 100%.

`CN1C[C@H](C(=O)O)C=C2c3cccc4[nH]cc(c34)C[C@H]21` [lysergic acid]: the inhibition in vivo at 0.5 mg/kg stood at 13% in experiment [1] and 0% in experiment [2] (setting [11]). Besides, the inhibition in vivo at 5 mg/kg worked out at 16% in experiment [1] and 20% in experiment [2] (setting [12]). Besides, the Prolactin in experiment [1] (setting [7]) is 76.0 ± 9.0 ng/mL; in experiment [1] (setting [8]), 73.0 ± 10.0 ng/mL; in experiment [2] (setting [9]), 61.0 ± 3.8 ng/mL; in experiment [2] (setting [10]) it was 52.0 ± 6.2 ng/mL. In experiment [2], the “in vivo … in words” value is “essentially inactive when administered alone”. Also, in experiment [3] (setting [13]), the activity at 100 µM was 60%. Further, the activity at 10 µM in experiment [3] (setting [14]) was found to be 90%. Besides, the activity at 1 µM in experiment [3] (setting [15]) is 100%. In experiment [3] (setting [15]), the activity at 0.1 µM was 100%.

Consider `CN1C[C@H](C(=O)O)CC2c3cccc4[nH]cc(c34)C[C@H]21` (some centres unmarked) [dihydrolysergic acid], for which the inhibition in vivo at 0.5 mg/kg in experiment [1] and in experiment [2] (setting [11]) was 0% each time. The inhibition in vivo at 5 mg/kg in experiment [2] (setting [12]) amounted to 25%. For the same molecule, the “in vivo … in words” value in experiment [2] was “weak effect; also recorded: essentially inactive when administered alone”. Also, the “Product bound % ((^3H) spiroperidole binding to hypophysis membranes)” value in experiment [3] ((^3H) spiroperidole 2.10^-9 M (2 nM), test substance 10^-4 M, 100 µM) turned out to be 60%; in experiment [3] ((^3H) spiroperidole 2.10^-9 M (2 nM), test substance 10^-5 M, 10 µM), 90%. In experiment [3] (setting [13]), the activity at 100 µM amounted to 45%. Further, the activity at 10 µM in experiment [3] (setting [14]) stood at 95%. The activity at 1 µM in experiment [3] (setting [15]) is 100%. Further, the activity at 0.1 µM in experiment [3] (setting [15]) came to 100%.

For the molecule `CCCCCCCCCCCCC/C=C/[C@@H](O)[C@@H](N)CO` [sphingosine], the “Product bound % (^3H-GABA binding on rat cortex membranes)” value in experiment [5] (test substance 10^-4 M, 100 µM) came out at 100%; in experiment [5] (test substance 10^-5 M, 10 µM), 100%; in experiment [5] (test substance 10^-6 M, 1 µM), 100%; in experiment [5] (test substance 10^-7 M, 0.1 µM), 100%; in experiment [5] (test substance 10^-8 M, 0.01 µM), 100%. Besides, the “in vitro biological activity (GABA binding), in words” value in experiment [5] (summary of Table I) is reported as “no biological activity”. The inhibition in vivo at 0.5 mg/kg in experiment [1] and in experiment [2] (setting [11]) was 0% throughout. For the same molecule, the “Prolactin Inhibition %” value in experiment [1] (setting [7]), in experiment [2] (setting [9]) and in experiment [2] (setting [10]) was 0% in each case. Besides, the inhibition in vivo at 5 mg/kg in experiment [2] (setting [12]) stood at 0%. Further, in experiment [6] (setting [20]), the “Latency of the convulsions measured” value was 3700 ± 200 s. The “Number of animals in convulsions” value in experiment [6] (setting [20]) is 20/30. In addition, in experiment [6] (setting [20]), the “Number of dead animals” value amounted to 9. Besides, the activity at 100 µM in experiment [3] (setting [13]) is 100%. The activity at 10 µM in experiment [3] (setting [14]) is 100%. Further, the activity at 1 µM in experiment [3] (setting [15]) worked out at 100%. In experiment [3] (setting [15]), the activity at 0.1 µM was 100%.

As for `NNC(=O)c1ccncc1` [Isoniazide, isoniazide], in experiment [6] (setting [21]), the “Latency of the convulsions measured” value is 3070 ± 110 s, the “Number of animals in convulsions” value was 26/30 and the “Number of dead animals” value is listed as 15.

For the origin of these results see patent US4897382A, “Organic amide compounds derived from nitrogenous lipids” (priority 1981, dated 1990).
